Experimental data taken from ChEMBL document CHEMBL1129278, “Binding of arylpiperazines, (aryloxy)propanolamines, and tetrahydropyridylindoles to the 5-HT1A receptor: contribution of the molecular lipophilicity potential to three-dimensional quantitative structure-affinity relationship models” (J Med Chem, 1996).
pKi: −log10 of the molar value.

Biological target: T1, 5-hydroxytryptamine receptor 1A (Rattus norvegicus, UniProt P19327)
T1 sequence (P19327 whole entry): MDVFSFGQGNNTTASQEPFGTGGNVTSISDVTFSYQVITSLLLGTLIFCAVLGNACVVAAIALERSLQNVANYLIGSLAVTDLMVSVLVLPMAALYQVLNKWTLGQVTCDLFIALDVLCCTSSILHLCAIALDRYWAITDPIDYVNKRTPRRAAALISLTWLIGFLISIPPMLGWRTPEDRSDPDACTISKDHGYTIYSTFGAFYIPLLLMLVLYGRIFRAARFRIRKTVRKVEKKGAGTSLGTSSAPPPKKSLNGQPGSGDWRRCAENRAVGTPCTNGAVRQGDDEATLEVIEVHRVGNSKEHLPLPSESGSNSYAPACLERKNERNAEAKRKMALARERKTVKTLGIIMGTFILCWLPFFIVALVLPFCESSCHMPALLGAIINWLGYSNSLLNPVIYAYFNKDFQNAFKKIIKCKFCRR

Row | Compound | pKi
1 | CC(C)NCC(O)COc1ccccc1-n1cccc1 (centres undefined) [ISAMOLTAN] | 7.31
2 | COc1ccccc1N1CCN(CCCCNC2CC3CCC2C3)CC1 (centres undefined) | 8.40
3 | CN1CCN(c2cccc3ccoc23)CC1 | 8.10
4 | CCCCCCCCN1CCN(c2ccccc2)CC1 | 7.95
5 | c1ccc(N2CCNCC2)cc1 [PHENYLPIPERAZINE] | 5.82
6 | CCCN(CCN1C(=O)c2ccccc2C1=O)C1COc2cccc(OC)c2C1 (centres undefined) | 6.40
7 | CCCN(CCCCN1C(=O)CC2(CCCC2)CC1=O)C1COc2cccc(O)c2C1 (stereo in doubt; 228) | 8.00
8 | COc1cccc2c1CC(N)CC2 (centres undefined) | 6.75
9 | CN(C)CCc1c[nH]c2cc3c(cc12)CCCO3 | 6.22
10 | COc1ccccc1N1CCN(CCCCNCc2ccccc2)CC1 | 7.22
11 | COc1cccc2c1CC(N1CCCC1)CO2 (centres undefined) | 8.46
12 | COc1ccccc1N1CCN(CCCOc2cccc3ccccc23)CC1 | 8.05
13 | C=CCN(CCC)C1CCc2cccc(OS(=O)(=O)C(F)(F)F)c2C1 (centres undefined) | 8.02
14 | CCCOCOCCc1ccc(OCC(O)CNC(C)C)cc1 (centres undefined) | 5.00
15 | Oc1ccc2cccc(N3CCNCC3)c2c1 | 8.48
16 | CN1CC=C(c2c[nH]c3ccc(C4COCCO4)cc23)CC1 (centres undefined) | 7.06
17 | COc1ccccc1N1CCN(CCCCN2C(=O)CC3(CCCC3)CC2=O)CC1 | 8.70
18 | CN(C)CC(O)CO (stereo in doubt; 123) | 5.31
19 | CC(CN)c1c[nH]c2ccc(O)cc12 (centres undefined) | 7.07
20 | CCCN(CCC)C1COc2cccc(O)c2C1 (centres undefined) | 8.70
21 | CCCN(CCCCN1C(=O)CC2(CCCC2)CC1=O)C1COc2ccccc2C1 (centres undefined) | 9.00
22 | CCCN(CCC)C1CCc2cccc(C#N)c2C1 (centres undefined) | 7.43
23 | CN(C)CCc1c[nH]c2ccc3c(c12)CCCO3 | 6.02
24 | CN(C)CC(O)COc1cccc2ccccc12 (centres undefined) | 6.46
